How the values were obtained:
S. epidermidis 1071 = assay: agar diffusion test (Test System II, multi-resistant germs); type: cell-based, Staphylococcus epidermidis; parameters: key: r = resistant (no detectable zone of inhibition)
Summary of the method: (§1)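 Disc diffusion on Müller-Hinton II agar; inoculum McFarland 0.5 in saline, streaked in three directions. Discs carry 10/50/100 μg compound (MeOH or water). 37 °C, 18-20 h; read-out: zone-of-inhibition diameter.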

S. epidermidis 847 = assay: as above; type: cell-based, Staphylococcus epidermidis; parameters: key: r = resistant (no detectable zone of inhibition)
Summary of the method: as §1

S. epidermidis 563 = assay: as above; type: cell-based, Staphylococcus epidermidis; parameters: key: r = resistant (no detectable zone of inhibition)
Summary of the method: as §1

S. epidermidis 1068 = assay: as above; type: cell-based, Staphylococcus epidermidis; parameters: key: r = resistant (no detectable zone of inhibition)
Summary of the method: as §1

[1] = test system: Enterococcus faecalis 769; assay: as above; type: cell-based; parameters: key: r = resistant (no detectable zone of inhibition)
Summary of the method: as §1

[2] = test system: Staphylococcus aureus 315; assay: as above; type: cell-based; parameters: key: r = resistant (no detectable zone of inhibition)
Summary of the method: as §1

[3] = test system: Escherichia coli SBUG 1135; assay: agar diffusion test (Test System 1, antimicrobial effect); type: cell-based; parameters: key: r = resistant (no detectable zone of inhibition)
Summary of the method: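 Disc diffusion: compound at 10 μg, 50 μg, 100 μg on sensi-discs, three per plate of nutrient agar seeded with ~10^6 E. coli SBUG 1135 (overnight culture, 17 h, 37° C, diluted 1:100). After 20 h incubation at 37° C, zone diameter recorded in mm.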

E. faecalis 945 = assay: agar diffusion test (Test System II, multi-resistant germs); type: cell-based, Enterococcus faecalis; parameters: key: r = resistant (no detectable zone of inhibition)
Summary of the method: as §1

S. epidermidis 125 = assay: as above; type: cell-based, Staphylococcus epidermidis
Summary of the method: as §1

[4] = test system: Bacillus megaterium SBUG 1152; assay: agar diffusion test (Test System 1, antimicrobial effect); type: cell-based
Summary of the method: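 Paper discs loaded with 10 μg, 50 μg or 100 μg of test substance (methanol or water solution) placed on nutrient agar seeded with 10^6 cells of a 17-h B. megaterium culture. After 20 h at 37° C., zone of inhibition measured as diameter in mm.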

S. aureus 36881 = assay: agar diffusion test (Test System II, multi-resistant germs); type: cell-based, Staphylococcus aureus; parameters: key: r = resistant (no detectable zone of inhibition)
Summary of the method: as §1

[5] = test system: S. aureus North Germany strain; assay: as above; type: cell-based, Staphylococcus aureus; parameters: key: r = resistant (no detectable zone of inhibition)
Summary of the method: as §1

S. aureus 34289 = assay: as above; type: cell-based, Staphylococcus aureus; parameters: key: r = resistant (no detectable zone of inhibition)
Summary of the method: as §1

S. aureus 520 = assay: as above; type: cell-based, Staphylococcus aureus; parameters: key: r = resistant (no detectable zone of inhibition)
Summary of the method: as §1

S. aureus 526 = assay: as above; type: cell-based, Staphylococcus aureus; parameters: key: r = resistant (no detectable zone of inhibition)
Summary of the method: as §1

S. aureus 39105 = assay: as above; type: cell-based, Staphylococcus aureus; parameters: key: r = resistant (no detectable zone of inhibition)
Summary of the method: as §1

S. aureus 33490 = assay: as above; type: cell-based, Staphylococcus aureus; parameters: key: r = resistant (no detectable zone of inhibition)
Summary of the method: as §1

B. subtilis AWD 166 = assay: agar diffusion test (antimicrobial effect); type: cell-based, Bacillus subtilis
Summary of the method: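 Inhibition zone diameters (mm) read after 20 h incubation at 37 °C. Discs carried 10 μg, 50 μg or 100 μg of test substance, dissolved in methanol or distilled water, on agar inoculated with B. subtilis AWD 166 for dense but separate colonies.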

7-[2-(2-carbamoyl-3,6-dioxocyclohexa-1,4-dienylamino)-2-(4-hydroxyphenyl)-acetylamino]-desacetoxycephalosporanic acid [1b]
Diameter of zone of inhibition (S. epidermidis 1071; Quantity n 0.019): r
Diameter of zone of inhibition (S. epidermidis 1071; Quantity n 0.1): 18 mm
Diameter of zone of inhibition (S. epidermidis 1071; Quantity n 0.19): 22 mm
Diameter of zone of inhibition (S. epidermidis 847; Quantity n [mol] 0.019): r
Diameter of zone of inhibition (S. epidermidis 847; Quantity n [mol] 0.1): 10 mm
Diameter of zone of inhibition (S. epidermidis 847; Quantity n [mol] 0.19): 12 mm
Diameter of zone of inhibition (S. epidermidis 563; Quantity n 0.019): r
Diameter of zone of inhibition (S. epidermidis 563; Quantity n 0.1): 14 mm
Diameter of zone of inhibition (S. epidermidis 563; Quantity n 0.19): 20 mm
Diameter of zone of inhibition (S. epidermidis 1068; Quantity n 0.019): r
Diameter of zone of inhibition (S. epidermidis 1068; Quantity n 0.1): 16 mm
Diameter of zone of inhibition (S. epidermidis 1068; Quantity n 0.19): 20 mm
Diameter of zone of inhibition ([1]; Quantity n 0.019): r
Diameter of zone of inhibition ([1]; Quantity n 0.1): r
Diameter of zone of inhibition ([1]; Quantity n 0.19): r
Diameter of zone of inhibition ([2]; Quantity n 0.019): r
Diameter of zone of inhibition ([2]; Quantity n 0.1): r
Diameter of zone of inhibition ([2]; Quantity n 0.19): 8 mm
Diameter of zone of inhibition ([3]; Quantity n 0.019): r
Diameter of zone of inhibition ([3]; Quantity n 0.1): 14 mm
Diameter of zone of inhibition ([3]; Quantity n 0.19): 18 mm
Diameter of zone of inhibition (E. faecalis 945; Quantity n 0.019): r
Diameter of zone of inhibition (E. faecalis 945; Quantity n 0.1): r
Diameter of zone of inhibition (E. faecalis 945; Quantity n 0.19): r
Diameter of zone of inhibition (S. epidermidis 125; Quantity n 0.019): 14 mm
Diameter of zone of inhibition (S. epidermidis 125; Quantity n 0.1): 22 mm
Diameter of zone of inhibition (S. epidermidis 125; Quantity n 0.19): 26 mm
Diameter of zone of inhibition ([4]; Quantity n 0.019): 22 mm
Diameter of zone of inhibition ([4]; Quantity n 0.1): 30 mm
Diameter of zone of inhibition ([4]; Quantity n 0.19): 32 mm
Diameter of zone of inhibition (S. aureus 36881; Quantity n 0.019): r
Diameter of zone of inhibition (S. aureus 36881; Quantity n 0.1): 12 mm
Diameter of zone of inhibition (S. aureus 36881; Quantity n 0.19): 18 mm
Diameter of zone of inhibition ([5]; Quantity n 0.019): r
Diameter of zone of inhibition ([5]; Quantity n 0.1): 8 mm
Diameter of zone of inhibition ([5]; Quantity n 0.19): 12 mm
Diameter of zone of inhibition (S. aureus 34289; Quantity n [mol] 0.019): r
Diameter of zone of inhibition (S. aureus 34289; Quantity n [mol] 0.1): r
Diameter of zone of inhibition (S. aureus 34289; Quantity n [mol] 0.19): 12 mm
Diameter of zone of inhibition (S. aureus 520; Quantity n [mol] 0.019): r
Diameter of zone of inhibition (S. aureus 520; Quantity n [mol] 0.1): r
Diameter of zone of inhibition (S. aureus 520; Quantity n [mol] 0.19): r
Diameter of zone of inhibition (S. aureus 526; Quantity n 0.019): r
Diameter of zone of inhibition (S. aureus 526; Quantity n 0.1): r
Diameter of zone of inhibition (S. aureus 526; Quantity n 0.19): 12 mm
Diameter of zone of inhibition (S. aureus 39105; Quantity n 0.019): r
Diameter of zone of inhibition (S. aureus 39105; Quantity n 0.1): 12 mm
Diameter of zone of inhibition (S. aureus 39105; Quantity n 0.19): 18 mm
Diameter of zone of inhibition (S. aureus 33490; Quantity n [μmol] 0.019): r
Diameter of zone of inhibition (S. aureus 33490; Quantity n [μmol] 0.1): 14 mm
Diameter of zone of inhibition (S. aureus 33490; Quantity n [μmol] 0.19): 20 mm
Diameter of zone of inhibition (B. subtilis AWD 166; Quantity n 0.019): 22 mm
Diameter of zone of inhibition (B. subtilis AWD 166; Quantity n 0.1): 30 mm
Diameter of zone of inhibition (B. subtilis AWD 166; Quantity n 0.19): 32 mm

Reference: patent US20110040086A1, “Novel Beta-Lactam Antibiotics, Methods for Their Production, and Their Use” (DRITTE PATENTPORTFOLIO BETEILIGUNGSGESELLSCHAFT MB, priority 2007, published 2011)
